According to publication PMC6554663, “Pharmaceutical Effects of Inhibiting the Soluble Epoxide Hydrolase in Canine Osteoarthritis” (Frontiers in Pharmacology, 2019):
“Also recorded” adds a separate entry of the source.

What was measured:
aged beagle dogs with OA = experiment: Pain and function assessment (modified CBPI questionnaire) in arthritic dogs; type: in vivo, dog
Description: The study was conducted as a blinded, parallel matched-group design. Dogs were randomized into groups based on pretreatment pain scores and each group was randomly assigned a treatment. Prior to randomization, each dog was assessed for arthritis by radiograph to assess the severity of OA by presence of osteophytes, subchondral sclerosis or joint effusion each scored on a scale of 0 (least) to 3 (worst) for each of 12 joints. Severity of the radiograph score was included in the randomization protocol and distributed between the groups, and there were no statistical differences between the averages of each group. Individual radiograph scores can be found in Supplementary Table S2. […] Compounds were dissolved in PEG300 to a concentration of 2.4 mg/mL (1 mg/kg) and 12 mg/mL (5 mg/kg) and administered as approximately 5 mL in size 12 gelatin capsules (Torpac) administered once daily on days 1 through 5. Vehicle group consisted of 5 mL PEG300 in capsule. Concurrent medications were not allowed and not needed during the study.
Pain and function were assessed by a questionnaire answered by blinded technicians based on observation of study animals housed at InterVivo. The survey was adapted from the canine brief pain inventory (CBPI), which was developed based on clinical questionnaires in which owners score the function and pain level of their pets with existing pain conditions ([Brown et al., 2007]). Modifications to the questionnaire attempted to account for differences between owner pain evaluation of pets and pain evaluation of laboratory dogs by technical staff. For survey administration, blinded technicians attempted to elicit objective behavior-specific measures of function and pain level across a variety of normal canine behaviors (e.g., walking, trotting, galloping, rearing, and stair-climbing, etc.). For this, one technician was responsible for soliciting the relevant behaviors from a dog using encouragement and/or food rewards, while the evaluating technician scored function and observable pain using the modified CBPI questionnaire. Subjects were tested daily on Days -7 through -3, to develop baseline scores, and again on Days 1 through 5 administered 1.5 h after dosing. Dosing occurred in the morning, and observations were recorded 1.5 h after dosing, to limit time-of-day variability. Questions are listed in Supplementary Table S3. […]
Canine pain and function data were analyzed using ANOVA, linear mixed effects model, with Tukey adjustment in R and repeated measures ANOVA. Correlations coefficients were calculated in Graphpad Prism using the non-parametric Spearman correlation coefficient. In vitro experiments were analyzed using ANOVA in Graphpad Prism. […]

Canine sEH = target: T1, Canine sEH (Canis lupus familiaris, UniProt A0A8I3NJL8); experiment: Canine sEH inhibition IC50; type: biochemical; conditions: canine enzyme partially purified from liver cytosol
T1 construct: canine enzyme was partially purified on a Q-sepharose column from liver cytosol; from tissue; host or cells: dog liver cytosol, about 10-fold purification on Q-sepharose
T1 sequence (A0A8I3NJL8 1-556): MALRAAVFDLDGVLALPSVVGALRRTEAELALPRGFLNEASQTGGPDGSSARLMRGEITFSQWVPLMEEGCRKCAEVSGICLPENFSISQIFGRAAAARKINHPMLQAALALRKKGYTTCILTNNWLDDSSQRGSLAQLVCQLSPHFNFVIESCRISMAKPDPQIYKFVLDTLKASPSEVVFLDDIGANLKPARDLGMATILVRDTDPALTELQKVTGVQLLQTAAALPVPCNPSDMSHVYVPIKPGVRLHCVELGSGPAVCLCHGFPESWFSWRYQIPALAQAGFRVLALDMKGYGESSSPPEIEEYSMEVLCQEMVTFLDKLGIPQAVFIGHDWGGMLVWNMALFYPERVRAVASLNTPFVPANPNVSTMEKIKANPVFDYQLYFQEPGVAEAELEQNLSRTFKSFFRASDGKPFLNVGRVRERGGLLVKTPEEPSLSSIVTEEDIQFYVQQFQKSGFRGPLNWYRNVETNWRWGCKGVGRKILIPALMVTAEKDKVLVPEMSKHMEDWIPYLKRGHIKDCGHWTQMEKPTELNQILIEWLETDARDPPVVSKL

Row | SMILES | function scores compared to the other groups (trend) (aged beagle dogs with OA; 5 mg/kg oral once daily) | pain compared to placebo / vehicle control (aged beagle dogs with OA; 5 mg/kg oral once daily for 5 days, p < 0.05) | increase in function (aged beagle dogs with OA; 5 mg/kg oral once daily, after 5-days of dosing) [%] | reduction in pain compared to predose values (maximum effect) (aged beagle dogs with OA; 5 mg/kg oral once daily, day 4, average) [%] | IC50 (Canine sEH) [nM]
1 | O=C(Nc1ccc(OC(F)(F)F)cc1)N[C@H]1CC[C@H](Oc2ccc(C(=O)O)cc2)CC1 [EC1728, trans-4-{4-[3-(4-trifluoromethoxy-phenyl)-ureido]-cyclohexyloxy}-benzoic acid] | tended to have increased function scores | significantly reduced pain; also recorded: significantly less pain | 16 | 44 | –
2 | CN(C(=O)N[C@H]1CC[C@H](Oc2ccc(C(=O)O)cc2)CC1)c1ccc(OC(F)(F)F)cc1 [EC3039, trans-4-{4-[3-methyl-3-(4-trifluoromethoxy-phenyl)-ureido]-cyclohexyloxy}-benzoic acid] | – | – | – | – | 4.42
